In assay [1] the test system is A549 (human lung adenocarcinoma). Put plainly: Cytotoxicity assay (CellTiter-Glo), A549. The format is cell-based. As to conditions: 72 h, A549 cells, three days culture, rounded to 1 significant figure. The protocol: (§1) The cell lines A549 (human lung adenocarcinoma), OVCAR-3 (human ovarian carcinoma), HL60 (human promyelocytic leukemia), DLD1 (human colon adenocarcinoma) and HCT116 (human colon carcinoma) were obtained from the American Type Culture Collection, Manassas, Va., U.S.A. All products were used in accordance with manufacturer's directions. The histone phosphorylation (p-H3) assay was conducted in duplicate and the cytotoxicity assays were conducted in triplicate, in each case with solvent control.
(§2) Log-phase cells were trypsinized, collected by centrifugation, and resuspended in a small volume of fresh medium, and the density of viable cells was determined following Trypan Blue staining. Cells were diluted in fresh media, the test compounds (concentrations between 0.1 μM and 200 μM, dissolved in DMSO, 50 μL) added immediately after dilution to achieve a final DMSO concentration of 0.5%, then the suspensions added at 150 μL/well to 96-well plates, and incubated overnight to allow attachment in the case of adherent cells. The cells were cultured for three days (about three doubling times). The cells were then collected by centrifugation, and 100 μL of the culture supernatant was replaced by the CellTiter-Glo reagent. After incubation for 15 minutes at room temperature, the plate was read with a luminometer. […] The table gives cytotoxicity IC50s in μM, rounded to 1 significant figure.

The subject of assay [2] is OVCAR-3 (human ovarian carcinoma). The experiment in a line: Cytotoxicity assay (CellTiter-Glo), OVCAR-3. The format is cell-based. As to conditions: 72 h, OVCAR-3 cells, three days culture, rounded to 1 significant figure. The protocol:
as §1, §2
(Cellular ATP, detected with luciferase, serves as a proxy for viable cell number.)

Assay [3] relates to HL60 (human promyelocytic leukemia). Put plainly: Cytotoxicity assay (CellTiter-Glo), HL-60. As to conditions: 72 h, HL-60 cells, three days culture, rounded to 1 significant figure. It is filed as cell-based. The protocol: as §1, §2
Assay [4] deals with DLD1 (human colon adenocarcinoma). The experiment in a line: Cytotoxicity assay (CellTiter-Glo), DLD1. It is filed as cell-based. As to conditions: DLD-1, 72 h, DLD1 cells, three days culture, rounded to 1 significant figure. The procedure: as §1, §2
Assay [5] deals with HCT116 (human colon carcinoma). The experiment in a line: Cytotoxicity assay (CellTiter-Glo), HCT116. It is filed as cell-based. As to conditions: HCT-116, 72 h, HCT116 cells, three days culture, rounded to 1 significant figure. The procedure: as §1, §2
A further assay concerns p-H3 in A549 cells. The experiment in a line: Histone phosphorylation (p-H3) assay. As to conditions: Homo sapiens, 4 hr incubation, dot-blot. The format is cell-based. The protocol: as §1
Log phase A549 cells were seeded in a 96-well plate and allowed to attach overnight. The test compounds were diluted in DMSO (8 concentrations with serial 3-fold dilutions) and added to the cells (0.5% DMSO final concentration), and the cells incubated for 4 hr. The cells were then washed three times with cold phosphate-buffered saline (PBS), and lysis buffer was added. After 30 min shaking at 4° C. and centrifugation, the supernatants were transferred to a nitrocellulose membrane by a “dot-blot” apparatus. After washing the wells, the membrane was processed for Western blot. Detection of p-H3 and β-actin was performed on the same membrane with primary rabbit anti-p-H3 and mouse anti-β-actin antibodies followed by secondary goat anti-rabbit IRDye800 and goat anti-mouse AlexaFluor 680 antibodies. The membranes were scanned on an Odyssey scanner.

The test system of a further assay is tubulin. The experiment in a line: Inhibition of tubulin polymerization, cell-free fluorescence assay. It is filed as biochemical.
The subject of assay [6] is HL60 (human promyelocytic leukemia) xenograft. The experiment in a line: HL60 xenograft assay, oral administration. It is filed as in vivo. As to conditions: Mus musculus, HL-60, po, nu/nu mice, read-out: inhibition of tumor growth compared to vehicle. The protocol:
(§3) Male athymic nu/nu mice, 6-8 weeks old (about 20 g), were implanted subcutaneously in the right fore flank with about 1×10^7 cells of the HL60 (human promyelocytic leukemia) line that had been grown in antibiotic-free medium for at least two passages. About 6 days after tumor implantation, when the tumor weight was about 50-250 mg, the mice were assigned to treatment groups. Test compounds were suspended at 20 mg/mL in 0.55 wt. % aqueous carboxymethylcellulose. Groups of mice were treated with compounds 2A, 9A, and 12A at 200 mg/Kg by gavage once/day on days 1-5 and 8-10 from the start of treatment, with vehicle control. Tumor growth inhibition was measured on the last day of treatment.
The experiment was conducted generally as described in In vivo Example 1. Groups of mice were treated with compounds 5A, 6A, 7A, 8A, and 10A at 200 mg/Kg by gavage once/day on days 1-5 and 8-10 from the start of treatment, with vehicle control. Tumor growth inhibition was measured the day after the last day of treatment.

Assay [7] has as its system HCT116 (human colon carcinoma) xenograft. The experiment in a line: HCT116 xenograft assay, oral administration. It is filed as in vivo. As to conditions: nu/nu mice, 200 mg/Kg by gavage once/day days 1-5 and 8-12, measured 2 days after the last day of treatment. The procedure: as §3, with “the HCT116” for “the HL60”, “(human colon carcinoma)” for “(human promyelocytic leukemia)”, “About 14-21” for “About 6”, “tumor transplantation,” for “tumor implantation,”, “and 8-12” for “and 8-10”, “measured 2 days after” for “measured on”

For assay [8], the system named is tubulin polymerization in A549 cells. The experiment in a line: Inhibition of tubulin polymerization in A549 cells by immunomicroscopy and cell fractionation. It is filed as cell-based, human.
Setting [9] is: 200 mg/Kg by gavage once/day days 1-5 and 8-10, measured on the last day of treatment (In vivo Example 1).

Read-outs that look alike come from different tables or passages of the source.

What is called IC50 is the concentration that inhibits the measured activity by half.

For the compound `COc1ccc(Nc2sc(C(=O)c3ccc(Cl)cc3)c(N)c2C#N)cc1` [Compound 2A], the IC50 in assay [1] stood at 10 nM; in assay [2], 20 nM; in [3] it was 10 nM; in [4], 6 nM; in [5] it was 10 nM; in the assay on p-H3 in A549 cells, 20 nM. Moreover, the “inhibition of tubulin polymerization (cell-free)” value (from here on “inhibition … (cell-free)”) in the assay on tubulin is listed as “inhibition of tubulin polymerization”. Also, the inhibition in vivo at 200 mg/kg in assay [6] (setting [9]) was 46%. For the same compound, the “inhibition of tumor growth compared to vehicle” value (“inhibition … compared to vehicle” for short) in assay [7] is 35%.

Consider `COc1ccc(Nc2sc(C(=O)c3ccc(OC)cc3OC)c(N)c2C#N)cc1` [Compound 7A, 4-amino-5-(2,4-dimethoxybenzoyl)-2-[(4-methoxyphenyl)amino]thiophene-3-carbonitrile], for which the IC50 in assay [1] is 30 nM; in assay [3], 20 nM; in [5], 10 nM; in assay [8] (read-out: IC50, inhibition of tubulin polymerization in A549 cells), 9 nM. The inhibition in vivo at 200 mg/kg in assay [6] (200 mg/Kg by gavage once/day days 1-5 and 8-10, measured the day after the last day of treatment (In vivo Example 3)) worked out at 45%.

For `CCc1ccc(Nc2sc(C(=O)c3ccc(Cl)cc3)c(N)c2C#N)cc1` [Compound 15A, 4-amino-5-(4-chlorobenzoyl)-2-[(4-ethylphenyl)amino]thiophene-3-carbonitrile], the results for the IC50 (in assay [1]; in assay [3]; in the assay with p-H3 in A549 cells) were 100 nM, 90 nM and 500 nM, respectively.

On to `CCN(CC)c1ccc(C(=O)c2sc(Nc3ccc4c(c3)OCO4)c(C#N)c2N)cc1` [Compound 9A], for which the IC50 in assay [1] worked out at 40 nM; in assay [2] it was 20 nM; in assay [3] it was 40 nM; in [4], 20 nM; in assay [5] it was 40 nM. The “inhibition … (cell-free)” value in the assay on tubulin was “inhibition of tubulin polymerization”. Moreover, the inhibition in vivo at 200 mg/kg in assay [6] (setting [9]) came to 43%. For the same compound, the “inhibition … compared to vehicle” value in [7] is reported as 36%.

`N#Cc1ccc(Nc2sc(C(=O)c3ccc(Cl)cc3)c(N)c2C#N)cc1` [Compound 40A] showed a half-inhibitory concentration (IC50) in assay [1] of 2000 nM. The “activity in tubulin polymerization assay in A549 cells” value in assay [8] was “inactive”.

For the compound `COc1ccc(Nc2sc(C(=O)c3ccc(OC)cc3)c(N)c2C#N)cc1` [Compound 12A], the 50% inhibitory concentration (IC50) in assay [1] was determined as 50 nM; in assay [2], 30 nM; in assay [3], 40 nM; in assay [4] it was 40 nM; in assay [5] it was 40 nM. The “inhibition … (cell-free)” value with tubulin is “inhibition of tubulin polymerization”. Moreover, the inhibition in vivo at 200 mg/kg in assay [6] (setting [9]) turned out to be 66%. Moreover, the “inhibition … compared to vehicle” value in [7] is 46%.

These data come from patent US8410163B2, “Substituted 4-amino-5-benzoyl-2-(phenylamino)thiophene-3-carbonitriles and substituted 4-amino-5-benzoyl-2-(phenylamino)thiophene-3-carboxamides as tubulin polymerization inhibitors” (Telik, Inc., priority 2009, dated 2013).
